Measurements from patent publication US11136337B2, “Pyrazole- and indazole-substituted oxadiazolopyridine derivatives for use as ghrelin O-acyl transferase (GOAT) inhibitors” (Boehringer Ingelheim International GmbH, priority 2018, dated 2021).

Each molecule was assayed against human GOAT (Homo sapiens (Human), UniProt Q96T53) (assay: Determination of hGOAT activity in HEK293 cells after incubation with test compound (acyl-ghrelin ELISA)). Settings: HEK293 cells stably expressing human GOAT and preproghrelin; 5 h incubation with octanoate-BSA; acyl-ghrelin in medium by ELISA.
Sequence of human GOAT (Q96T53 whole entry): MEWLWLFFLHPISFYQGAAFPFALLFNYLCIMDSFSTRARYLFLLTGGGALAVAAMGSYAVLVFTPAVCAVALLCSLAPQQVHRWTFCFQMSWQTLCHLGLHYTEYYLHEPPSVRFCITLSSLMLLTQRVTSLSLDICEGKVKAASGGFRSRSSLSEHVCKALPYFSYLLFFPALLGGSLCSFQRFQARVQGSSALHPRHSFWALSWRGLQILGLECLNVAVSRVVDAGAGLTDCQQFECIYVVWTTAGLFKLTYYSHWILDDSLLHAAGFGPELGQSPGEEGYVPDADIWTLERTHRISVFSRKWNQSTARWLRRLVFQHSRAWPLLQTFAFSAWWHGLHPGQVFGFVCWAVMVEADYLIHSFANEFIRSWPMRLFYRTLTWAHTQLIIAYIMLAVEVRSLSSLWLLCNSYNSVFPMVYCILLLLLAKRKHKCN
Format: cell-based
Procedure: Determination of hGOAT Activity in HEK293 Cells after Incubation with Test Compound
HEK293 cells stably transfected with two expression vectors, one coding for preproghrelin cDNA and a second for the expression of human GOAT cDNA are used as a cellular model. After feeding the cells with octanoic acid for 5 hours, acyl-ghrelin is measured in cell culture medium by an ELISA procedure.
Cellline: Hek293 hGOAT/PPGhrl Clone #1B8Sodium octanoate, Sigma, Cat.-No. C5038
BD Poly-D-Lysin 384-well Plates, black-clear polystyrene BD Bioscience Cat.-No. […] ELISA human acylated Ghrelin Kit purchased from Bertin Pharman (detailed composition of buffers e.g. wash-puffer, ELISA buffer not known)
Cells are plated with a density of 5000 cells/well in 384-well poly-D-lysin plates and incubated for 1 day at 37° C., 5% CO2 in DMEM medium, 10% FCS, 1×NEAA, Puromycin (0.5 μg/ml) and G418 (1 mg/ml). Then the medium is changed to a identical medium without FCS and containing Octanoate-BSA (final concentration 100 μM each) and compound in DMSO (final DMSO concentration 0.3%). After incubation for 5 hours acylghrelin in the medium is measured by ELISA.
The medium sample is diluted 1:25 in Elisa buffer, a 25 μl aliquot is transferred to a 384-well ELISA plate previously washed 4 times with 100 μL wash buffer, and 25 μl tracer-solution is added. After incubation overnight (˜20 h) at 4° C. temperature the plate is washed 4 times with 100 μl wash-buffer per well. Finally 50 μl Ellman's reagent is added to each well and the plate is incubated in the dark for 20 minutes. The absorbance is measured at 405 nm in an Envision multilabel reader and the amount of acylated ghrelin is calculated according to a acylated ghrelin standard curve provided in the same plate.
The analysis of the data is performed by calculation of the percentage of acyl-ghrelin produced in the presence of test compound compared to the amount of acyl-ghrelin produced in the vehicle control samples. An inhibitor of the GOAT enzyme will give values between 100% CTL (no inhibition) and 0% CTL (complete inhibition).
IC50 values are calculated with Assay Explorer or other suited software based on curve fitting of results of 8 different compound concentrations.
For `CCOC(=O)c1cnn(Cc2c(C)nc3nonc3c2N)c1` [Example 1.1, Ethyl 1-({7-amino-5-methyl-[1,2,5]oxadiazolo[3,4-b]pyridin-6-yl}methyl)-1H-pyrazole-4-carboxylate], the IC50 was 1.7 nM.
With `Cc1nc2nonc2c(N)c1Cn1cc(-c2ccc(C#N)cc2)cn1` [Example 1.2] the IC50 was 1.6 nM.
With `Cc1nc2nonc2c(N)c1Cn1cc(-c2c(C)noc2C)cn1` [Example 1.3] the IC50 was 2.2 nM.
For `Cc1nc2nonc2c(N)c1Cn1cc(C(C)(C)C)cn1` [Example 1.4], the IC50 was 0.51 nM.
`Cc1nc2nonc2c(N)c1Cn1cc(NC(=O)OC(C)(C)C)cn1` [Example 1.5] was tested, and the IC50 was 3.3 nM.
With `COC(=O)c1ccn(Cc2c(C)nc3nonc3c2N)n1` [Example 1.6, Methyl 1-({7-amino-5-methyl-[1,2,5]oxadiazolo[3,4-b]pyridin-6-yl}methyl)-1H-pyrazole-3-carboxylate] the IC50 was 0.96 nM.
Work on `Cc1nc2nonc2c(N)c1Cn1cc(Br)c(C(F)(F)F)n1` [Example 1.7, 6-{[4-Bromo-3-(trifluoromethyl)-1H-pyrazol-1-yl]methyl}-5-methyl-[1,2,5]oxadiazolo[3,4-b]pyridin-7-amine] yielded an IC50 of 0.6 nM.
`Cc1nc2nonc2c(N)c1Cn1cc(C(F)(F)F)cn1` [Example 1.8] was tested, and the IC50 was 1.4 nM.
`Cc1nc2nonc2c(N)c1Cn1cc2cc(C#N)ccc2n1` [Example 1.9] gave an IC50 of 4.4 nM.
`Cc1nc2nonc2c(N)c1Cn1ccc(-c2ccccc2F)n1` [Example 2.1, 6-{[3-(2-Fluorophenyl)-1H-pyrazol-1-yl]methyl}-5-methyl-[1,2,5]oxadiazolo[3,4-b]pyridin-7-amine] gave an IC50 of 0.035 nM.
`Cc1nc2nonc2c(N)c1Cn1cc(-c2ccccc2F)cn1` [Example 2.2] was tested, and the IC50 was 0.23 nM.
`Cc1nc2nonc2c(N)c1Cn1nccc1-c1ccccc1F` [Example 2.3] gave an IC50 of 0.28 nM.
`Cc1nc2nonc2c(N)c1Cn1ccc(C=O)n1` [Example 2.4, 1-({7-amino-5-methyl-[1,2,5]oxadiazolo[3,4-b]pyridin-6-yl}methyl)-1H-pyrazole-3-carbaldehyde] was tested, and the IC50 was 1.7 nM.
`Cc1nc2nonc2c(N)c1Cn1ccc(N2CCCS2(=O)=O)n1` [Example 2.5] gave an IC50 of 0.18 nM.
`Cc1nc2nonc2c(N)c1Cn1cc(Br)cn1` [Example 2.6] was tested, and the IC50 was 4.4 nM.
Work on `Cc1nc2nonc2c(N)c1Cn1cc(-c2cccc(S(C)(=O)=O)c2)c(C(F)(F)F)n1` [Example 3.1, 6-{[4-(3-Methanesulfonylphenyl)-3-(trifluoromethyl)-1H-pyrazol-1-yl]methyl}-5-methyl-[1,2,5]oxadiazolo[3,4-b]pyridin-7-amine] yielded an IC50 of 3.3 nM.
`Cc1nc2nonc2c(N)c1Cn1cc(-c2ccc(F)nc2)c(C(F)(F)F)n1` [Example 3.2] gave an IC50 of 1.2 nM.
`Cc1nc2nonc2c(N)c1Cn1cc(-c2ccnn2C)c(C(F)(F)F)n1` [Example 3.3] was tested, and the IC50 was 2.6 nM.
In the case of `Cc1nc2nonc2c(N)c1Cn1cc(-c2cnn(C)c2)c(C(F)(F)F)n1` [Example 3.4], the IC50 is reported as 5.1 nM.
For `Cc1nc2nonc2c(N)c1Cn1ccc(-c2cccnc2F)n1` [Example 4.1, 6-{[3-(2-Fluoropyridin-3-yl)-1H-pyrazol-1-yl]methyl}-5-methyl-[1,2,5]oxadiazolo[3,4-b]pyridin-7-amine], the IC50 was 0.034 nM.
With `Cc1nc2nonc2c(N)c1Cn1ccc(-c2c[nH]nc2C(F)(F)F)n1` [Example 4.2] the IC50 was 0.11 nM.
Work on `Cc1nc2nonc2c(N)c1Cn1ccc(-c2cncs2)n1` [Example 4.3] yielded an IC50 of 0.12 nM.
In the case of `Cc1nc2nonc2c(N)c1Cn1ccc(-c2c(C)noc2C)n1` [Example 4.4], the IC50 is reported as 0.29 nM.
Work on `Cc1nc2nonc2c(N)c1Cn1ccc(-c2cnoc2)n1` [Example 4.5] yielded an IC50 of 3.8 nM.
`Cc1nc2nonc2c(N)c1Cn1ccc(-c2ccco2)n1` [Example 4.6] showed an IC50 of 0.17 nM.
For `Cc1nc2nonc2c(N)c1Cn1ccc(-c2cncn2C)n1` [Example 4.7], the IC50 was 0.37 nM.
Molecule `Cc1nc2nonc2c(N)c1Cn1ccc(-c2cccc(S(C)(=O)=O)c2)n1` [Example 4.8] has an IC50 of 0.096 nM.
In the case of `Cc1nc2nonc2c(N)c1Cn1ccc(-c2nn(C)c3ccccc23)n1` [Example 4.9], the IC50 is reported as 0.04 nM.
Molecule `Cc1nc2nonc2c(N)c1Cn1ccc(-c2cnn3cccnc23)n1` [Example 4.10] has an IC50 of 0.15 nM.
With `Cc1nc2nonc2c(N)c1Cn1ccc(-c2cn(C)c3ncccc23)n1` [Example 4.11] the IC50 was 0.19 nM.
Work on `Cc1nc2nonc2c(N)c1Cn1ccc(-c2ccc(S(C)(=O)=O)cc2F)n1` [Example 4.12] yielded an IC50 of 0.076 nM.
For `Cc1nc2nonc2c(N)c1Cn1ccc(-c2ccc(C#N)c(F)c2)n1` [Example 4.13], the IC50 was 0.38 nM.
Molecule `Cc1nc2nonc2c(N)c1Cn1ccc(-c2ccnn2C)n1` [Example 4.14] has an IC50 of 0.2 nM.
With `Cc1nc2nonc2c(N)c1Cn1cc(-c2ccn[nH]2)cn1` [Example 4.15] the IC50 was 5.6 nM.
`Cc1nc2nonc2c(N)c1Cn1cc(-c2cnn(C)c2)cn1` [Example 4.16] gave an IC50 of 3.6 nM.
For `Cc1nc2nonc2c(N)c1Cn1ccc(-c2cccc(C(F)(F)F)n2)n1` [Example 5.1, 5-Methyl-6-({3-[6-(trifluoromethyl)pyridin-2-yl]-1H-pyrazol-1-yl}methyl)-[1,2,5]oxadiazolo[3,4-b]pyridin-7-amine], the IC50 was 0.028 nM.
With `Cc1nc2nonc2c(N)c1Cn1cc2ccccc2n1` [Example 6.1, 6-[(2H-Indazol-2-yl)methyl]-5-methyl-[1,2,5]oxadiazolo[3,4-b]pyridin-7-amine] the IC50 was 0.69 nM.
`Cc1nc2nonc2c(N)c1Cn1ccc(C(=O)N2CCC(F)(F)C2)n1` [Example 7.1, 6-{[3-(3,3-Difluoropyrrolidine-1-carbonyl)-1H-pyrazol-1-yl]methyl}-5-methyl-[1,2,5]oxadiazolo[3,4-b]pyridin-7-amine] showed an IC50 of 0.84 nM.
`Cc1nc2nonc2c(N)c1Cn1ccc(C(=O)N2CCC(F)(F)CC2)n1` [Example 7.2] was tested, and the IC50 was 3.5 nM.
Molecule `Cc1nc2nonc2c(N)c1Cn1ccc(C(=O)N2CCC(O)(C(F)(F)F)C2)n1` (stereo not drawn) [Example 7.3] has an IC50 of 5.1 nM.
For `Cc1nc2nonc2c(N)c1Cn1ccc(NC(=O)C(NC(=O)OCc2ccccc2)C(C)C)n1` (stereo not drawn) [Example 8.1, Benzyl N-(1-{[1-({7-amino-5-methyl-[1,2,5]oxadiazolo[3,4-b]pyridin-6-yl}methyl)-1H-pyrazol-3-yl]carbamoyl}-2-methylpropyl)carbamate], the IC50 was 3.2 nM.
Work on `Cc1nc2nonc2c(N)c1Cn1ccc(CN2CCC(F)(F)CC2)n1` [Example 9.1, 6-({3-[(4,4-Difluoropiperidin-1-yl)methyl]-1H-pyrazol-1-yl}methyl)-5-methyl-[1,2,5]oxadiazolo [3,4-b]pyridin-7-amine] yielded an IC50 of 7.4 nM.
